Entries after “also recorded” stand apart in the source; their conditions may differ. Read-outs that look alike come from different tables or passages of the source. Each block holds one compound with its values, some of them ahead of it.
Assays:
OX2R = settings: read-out: EC50 at OX2R; weak agonist of both OX receptors; cited from earlier work
[1] = cited from earlier work
OX1R = settings: read-out: EC50 at OX1R; weak agonist of both OX receptors; cited from earlier work
human OX1R = target: T1, human OX1R (Homo sapiens, UniProt O43613); assay: OX1R calcium mobilization assay; settings: for agonist activity at OX1R (in words): calcium mobilization
T1 sequence (O43613 1-425): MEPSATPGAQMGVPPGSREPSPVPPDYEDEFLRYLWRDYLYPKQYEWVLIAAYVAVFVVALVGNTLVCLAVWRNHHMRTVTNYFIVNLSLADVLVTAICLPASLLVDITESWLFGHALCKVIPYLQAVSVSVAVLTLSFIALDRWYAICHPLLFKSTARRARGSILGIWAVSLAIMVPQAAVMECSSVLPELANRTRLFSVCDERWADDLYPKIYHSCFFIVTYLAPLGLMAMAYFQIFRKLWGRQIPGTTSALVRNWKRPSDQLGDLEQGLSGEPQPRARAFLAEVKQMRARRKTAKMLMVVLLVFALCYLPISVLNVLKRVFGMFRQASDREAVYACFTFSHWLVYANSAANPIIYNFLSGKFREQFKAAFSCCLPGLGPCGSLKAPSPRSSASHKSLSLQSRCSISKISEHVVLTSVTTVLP

human OX2R = target: T2, human OX2R (Homo sapiens, UniProt O43614); assay: OX2R calcium mobilization assay; settings: for agonist activity at OX2R (in words): calcium mobilization
T2 sequence (O43614 1-444): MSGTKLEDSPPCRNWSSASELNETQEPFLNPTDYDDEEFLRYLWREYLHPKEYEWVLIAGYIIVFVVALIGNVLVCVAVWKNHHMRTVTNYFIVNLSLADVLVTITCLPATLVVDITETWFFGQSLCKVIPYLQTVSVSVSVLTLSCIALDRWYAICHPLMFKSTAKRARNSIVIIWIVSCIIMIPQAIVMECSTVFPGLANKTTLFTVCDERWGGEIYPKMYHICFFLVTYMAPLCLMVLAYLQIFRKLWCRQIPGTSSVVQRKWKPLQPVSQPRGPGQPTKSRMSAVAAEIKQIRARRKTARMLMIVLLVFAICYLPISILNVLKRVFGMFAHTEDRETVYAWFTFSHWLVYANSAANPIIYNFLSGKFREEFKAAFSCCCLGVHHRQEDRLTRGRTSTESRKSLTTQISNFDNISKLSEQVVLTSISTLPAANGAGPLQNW

rats = settings: EEG changes, locomotor activity, startle response latency; cited from earlier work
mice = settings: cited from earlier work
12-month old mice = assay: Sleep modulation study, continuous EEG/EMG recordings; format: in vivo
[2] = i.c.v. 30, 100, 300 nmol, light phase, up to 3 h post injection
[3] = i.p. 40 and 60 mg/kg, 6 h into the light phase, up to 3 h, mice
[4] = 40 mg/kg i.p., 4 h post-injection, vs saline
[5] = 40 mg/kg i.p., lights-on phase, 12-month old mice, 0-4 h post-injection, vs vehicle
[6] = i.p. injection, 12-month old mice

SMILES: Cc1ccc(Cn2c(=N)n(CC(O)c3ccc(Cl)c(Cl)c3)c3ccccc32)cc1 (stereo not shown) [compound 1]
EC50 (OX2R): > 3.2 µM | cytotoxicity [1]: OX receptor independent cytotoxicity | EC50 (OX1R): > 3.2 µM

agonist activity at OX1R (in words) (human OX1R): no activity
SMILES: COc1ccc(-c2cccc(C(=O)N(C)Cc3ccccc3)c2)cc1S(=O)(=O)Nc1cccc(NCCNC(=O)c2cccc(C)c2)c1 [compound 36, N-Benzyl-4’-methoxy-N-methyl-3’-(N-(3-((2-(3-methylbenzamido)ethyl)amino)phenyl)sulfa-moyl)-[1,1’-biphenyl]-3-carboxamide]

agonist activity at OX2R (in words) (human OX2R): all activities were lost | agonist activity at OX1R (in words) (human OX1R): all activities were lost
SMILES: COc1ccc(-c2cccc(C(=O)N(C)C)c2)cc1S(=O)(=O)Nc1cccc(N2CCN(C(=O)c3ccccc3N(C)C)CC2)c1 [compound 22, 3’-(N-(3-(4-(2-(dimethylamino)benzoyl)piperazin-1-yl)phenyl)sulfamoyl)-4’-methoxy-N,N-dimethyl-[1,1’-biphenyl]-3-carboxamide]

agonist activity at OX1R (in words) (human OX1R): no activity
SMILES: CCCNC(=O)c1cccc(-c2ccc(OC)c(S(=O)(=O)Nc3cccc(NCCNC(=O)c4ccccc4N(C)C)c3)c2)c1 [compound 9, 3’-(N-(3-((2-(2-(dimethylamino)benzamido)ethyl)amino)phenyl)sulfamoyl)-4’-methoxy-N-p-ropyl-[1,1’-biphenyl]-3-carboxamide]

SMILES: COc1ccc(-c2cccc(C(=O)N(C)C)c2)cc1S(=O)(=O)Nc1cccc(NCCNC(=O)c2ccccc2N(C)C)c1 [compound 2, 3’-(N-(3-((2-(2-(dimethylamino)benzamido)ethyl)amino)phenyl)sulfamoyl)-4’-methoxy-N,-N-dimethyl-[1,1’-biphenyl]-3-carboxamide]
morphine-induced sedative effects (rats): attenuated | percent time in NREM sleep (mice; [2]): decreased | time in wakefulness (mice; [2]): increased | sleep/wake parameters (mice; i.p. 20 mg/kg): did not have any effect | percent time in NREM sleep (mice; i.p. 40 mg/kg, mice): reduced | percent time in REM sleep (mice; [3]): decreased | percent time in wakefulness (mice; [3]): increased | wake time (mice; i.p. 40 or 60 mg/kg): increased | direct transitions from wakefulness to REM sleep (mice; i.p. 40 or 60 mg/kg, for 3 hours): decreased | cataplexy-like episodes (mice; orexin knock-out and orexin neuron-ablated mice): suppressed | wakefulness (mice; wild-type mice, i.c.v. 30–300 nmol and/or i.p. 40 mg/kg, hydrochloride salt): promoted wakefulness

agonist activity at OX2R (in words) (human OX2R): inactive | agonist activity at OX1R (in words) (human OX1R): inactive
SMILES: COc1ccc(CCC(=O)N(C)C)cc1S(=O)(=O)Nc1cccc(NCCNC(=O)c2cccc(C)c2)c1 [compound 32, N-(2-((3-((5-(3-(dimethylamino)-3-oxopropyl)-2-methoxyphenyl)sulfonamido)phenyl)amin-o)ethyl)-3-methylbenzamide]

agonist activity at OX1R (in words) (human OX1R): full agonist
SMILES: COc1ccc(-c2cccc(C(=O)N(C)C)n2)cc1S(=O)(=O)Nc1cccc(NCCNC(=O)c2cccc(C)c2)c1 [compound 27, 6-(4-methoxy-3-(N-(3-((2-(3-methylbenzamido)ethyl)amino)phenyl)sulfamoyl)phenyl)-N,N-dimethylpicolinamide]

agonist activity at OX1R (in words) (human OX1R): complete loss of potency
SMILES: COc1ccc(-c2cccc(C(=O)NCCN(C)C)c2)cc1S(=O)(=O)Nc1cccc(NCCNC(=O)c2cccc(C)c2)c1 [compound 34, N-(2-(dimethylamino)ethyl)-4’-methoxy-3’-(N-(3-((2-(3-methylbenzamido)ethyl)amino)phenyl)sulfamoyl)-[1,1’-biphenyl]-3-carboxamide]

agonist activity at OX2R (in words) (human OX2R): inactive | agonist activity at OX1R (in words) (human OX1R): inactive
SMILES: COc1ccc(/C=C/C(=O)N(C)C)cc1S(=O)(=O)Nc1cccc(NCCNC(=O)c2cccc(C)c2)c1 [compound 31, (E)-N-(2-((3-((5-(3-(dimethylamino)-3-oxoprop-1-en-1-yl)-2-methoxyphenyl)sulfonamido)-phenyl)amino)ethyl)-3-methylbenzamide]

agonist activity at OX2R (in words) (human OX2R): all activities were lost | agonist activity at OX1R (in words) (human OX1R): all activities were lost
SMILES: COc1ccc(-c2cccc(C(=O)N(C)C)c2)cc1S(=O)(=O)Nc1cccc(N2CCN(C(=O)c3cccc(C)c3)CC2)c1 [compound 23, 4’-Methoxy-N,N-dimethyl-3’-(N-(3-(4-(3-methylbenzoyl)piperazin-1-yl)phenyl)sulfamoyl)-[1,1’-biphenyl]-3-carboxamide]

agonist activity at OX1R (in words) (human OX1R): total loss of activity
SMILES: COc1ccc(-c2cccc(C(=O)N(C)C)c2)cc1C(=O)Nc1cccc(NCCNC(=O)c2cccc(C)c2)c1 [compound 43, 4-Methoxy-N^3’,N^3’-dimethyl-N^3-(3-((2-(3-methylbenzamido)ethyl)amino)phenyl)-[1,1’-biph-enyl]-3,3’-dicarboxamide]

agonist activity at OX1R (in words) (human OX1R): no activity
SMILES: COc1ccc(-c2cccc(CN(C)C)c2)cc1S(=O)(=O)Nc1cccc(NCCNC(=O)c2ccccc2N(C)C)c1 [compound 10, 2-(Dimethylamino)-N-(2-((3-((3’-((dimethylamino)methyl)-4-methoxy-[1,1’-biphenyl])-3-sulfonamido)phenyl)amino)ethyl)benzamide]

agonist activity at OX2R (in words) (human OX2R): full agonist | Emax (human OX2R; read-out: Emax at OX2R): ~100% | agonist activity at OX1R (in words) (human OX1R): full agonist | Emax (human OX1R; read-out: Emax at OX1R): ~100%
SMILES: COc1ccc(-c2cccc(C(=O)N(C)Cc3ccncc3)c2)cc1S(=O)(=O)Nc1cccc(NCCNC(=O)c2cccc(C)c2)c1 [compound 40, 4’-Methoxy-N-methyl-3’-(N-(3-((2-(3-methylbenzamido)ethyl)amino)phenyl)sulfamoyl)-N-(pyridin-4-ylmethyl)-[1,1’-biphenyl]-3-carboxamide]
duration of NREM sleep episodes (12-month old mice; [4]): increased | duration of REM sleep episodes (12-month old mice; [4]): did not affect; also recorded: without effecting | duration of wake episodes (12-month old mice; [4]): increased | number of NREM sleep episodes (12-month old mice; [4]): Reduced | number of REM sleep episodes (12-month old mice; [4]): fewer episodes; also recorded: reduced | number of state transitions (12-month old mice; [4]): reduced | number of wake episodes (12-month old mice; [4]): reduced | time spent in NREM sleep (12-month old mice; [5]): reduced; also recorded: decreased | time spent in REM sleep (12-month old mice; [5]): reduced; also recorded: decreased | time spent in wakefulness (12-month old mice; 40 mg/kg i.p., quiet lights-on phase, 12-month old mice, 0-4 h post-injection, vs vehicle): significantly increased | sleep/wake consolidation (12-month old mice; [6]): increased; also recorded: improved | time asleep (12-month old mice; [6]): decreased

agonist activity at OX1R (in words) (human OX1R): total loss of activity
SMILES: COc1ccc(-c2cccc(C(=O)N(C)Cc3ccncc3)c2)cc1C(=O)Nc1cccc(NCCNC(=O)c2cccc(C)c2)c1 [compound 44, 4-Methoxy-N^3’-methyl-N^3-(3-((2-(3-methylbenzamido)ethyl)amino)phenyl)-N^3’-(pyridin-4-ylmethyl)-[1,1’-biphenyl]-3,3’-dicarboxamide]

agonist activity at OX1R (in words) (human OX1R): complete loss of the OX1R potency
SMILES: COc1ccc(-c2cccc(C(=O)NCc3ccccn3)c2)cc1S(=O)(=O)Nc1cccc(NCCNC(=O)c2cccc(C)c2)c1 [compound 38, 4’-Methoxy-3’-(N-(3-((2-(3-methylbenzamido)ethyl)amino)phenyl)sulfamoyl)-N-(pyridin-2-ylmethyl)-[1,1’-biphenyl]-3-carboxamide]

Source: PMC8994207 (Journal of medicinal chemistry, 2021)
